Data reported in patent US8003137B2, “Extracts of Aristolochia paucinervis pomel and uses thereof” (FasTrack Pharmaceuticals, Inc., priority 2008, dated 2011).

System: human red blood cells
Test: Hemolytic activity on heparinized whole blood
Format: cell-based
Details: 0- to 14-day incubation, all dilutions examined
Protocol: The hemolytic activity of A. paucinervis pomel extract on blood cells was examined, and compared with the ability of Triton-X to lyse these cells.
To perform these studies, heparinized-whole blood was incubated with dilutions of Triton-X-100 (0-1%) or 5× (4.4 mg/ml) A. paucinervis pomel extract for 40 minutes at room temperature. Plasma was collected after centrifugation at 1200×g for 5 minutes and diluted 1/20 with DPBS. The absorbance at 560 nm of 100 μl of each diluted plasma sample was measured. In a second experiment, the effects of incubating whole blood with dilutions of 5× (4.4 mg/ml) A. paucinervis pomel extract for 0, 3, 7 and 14 days was assessed. Experimental results are shown in FIG. 5A (cells treated with A. paucinervis pomel extract) and FIG. 5B (cells treated with Triton-X-100).

Triton-X
hemolytic activity on blood cells: toxic to blood cells
